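Method: 48-hour compound exposure of cells in 96-well plates, five concentrations, linear interpolation of endpoints. Definition used: TGI = concentration required for complete inhibition of growth.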
Tests used:
Assay in all cases: inhibition of tumour cell growth, NCI panel, 48 h
[1] = test system: 786-0 renal
[2] = test system: A498 renal
[3] = test system: A549 NSCLC
[4] = test system: ACHN renal
[5] = test system: CAKI-1 renal
[6] = test system: CCRF-CEM leukemia
[7] = test system: COLO 205 colon
[8] = test system: DLD-1 colon
[9] = test system: DMS 114 small cell lung
[10] = test system: DMS 273 small cell lung
[11] = test system: EKVX NSCLC
[12] = test system: HCC-2998 colon
[13] = test system: HCT-116 colon
[14] = test system: HCT-15 colon
[15] = test system: HL-60(TB) leukemia
[16] = test system: HOP-18 NSCLC
[17] = test system: HOP-62 NSCLC
[18] = test system: HOP-92 NSCLC
[19] = test system: HT29 colon
[20] = test system: IGROV1 ovarian
[21] = test system: K-562 leukemia
[22] = test system: KM12 colon
[23] = test system: KM20L2 colon
[24] = test system: LOX IMVI melanoma
[25] = test system: LXFL 529 NSCLC
[26] = test system: M14 melanoma
[27] = test system: M19-MEL melanoma
[28] = test system: MALME-3M melanoma
[29] = test system: MOLT-4 leukemia
[30] = test system: NCI-H226 lung
[31] = test system: NCI-H23 lung
[32] = test system: NCI-H460 lung
[33] = test system: NCI-H522 lung
[34] = test system: OVCAR-3 ovarian
[35] = test system: OVCAR-4 ovarian
[36] = test system: OVCAR-5 ovarian
[37] = test system: OVCAR-8 ovarian
[38] = test system: RPMI-8226 leukemia
[39] = test system: RXF 393 renal
[40] = test system: SF-268 CNS
[41] = test system: SF-295 CNS
[42] = test system: SK-MEL-2 melanoma
[43] = test system: SK-MEL-28 melanoma
[44] = test system: SK-MEL-5 melanoma
[45] = test system: SK-OV-3 ovarian
[46] = test system: SN12C renal
[47] = test system: SNB-19 CNS
[48] = test system: SNB-75 CNS
[49] = test system: SW-620 colon
[50] = test system: TK-10 renal
[51] = test system: U251 CNS
[52] = test system: UACC-257 melanoma
[53] = test system: UACC-62 melanoma
[54] = test system: UO-31 renal
[55] = test system: XF 498 CNS
[56] = test system: SF-539 CNS
[57] = test system: SNB-78 CNS

## C=CCN1COc2c(cc3c4c(cccc24)C(=O)O3)C1
[1]
  TGI: 39.1 µM
[2]
  TGI: 52.1 µM
[3]
  TGI: > 100 µM
[4]
  TGI: > 10 µM
[5]
  TGI: 49.3 µM
[6]
  TGI: 44.8 µM
[7]
  TGI: 33.1 µM
[8]
  TGI: 66.2 µM
[9]
  TGI: 35 µM
[10]
  TGI: > 100 µM
[11]
  TGI: 92 µM
[12]
  TGI: > 100 µM
[13]
  TGI: 36.7 µM
[14]
  TGI: 50 µM
[15]
  TGI: 50.3 µM
[16]
  TGI: > 100 µM
[17]
  TGI: > 100 µM
[18]
  TGI: 30.5 µM
[19]
  TGI: 51.8 µM
[20]
  TGI: > 100 µM
[21]
  TGI: 68.6 µM
[22]
  TGI: > 100 µM
[23]
  TGI: > 100 µM
[24]
  TGI: > 10 µM
[25]
  TGI: 35.1 µM
[26]
  TGI: 50.1 µM
[27]
  TGI: 37.4 µM
[28]
  TGI: > 10 µM
[29]
  TGI: 64.9 µM
[30]
  TGI: > 100 µM
[31]
  TGI: 47 µM
[32]
  TGI: > 100 µM
[33]
  TGI: 28.4 µM
[34]
  TGI: 72.5 µM
[35]
  TGI: > 100 µM
[36]
  TGI: > 100 µM
[37]
  TGI: > 100 µM
[38]
  TGI: 97.1 µM
[39]
  TGI: > 10 µM
[40]
  TGI: > 100 µM
[41]
  TGI: > 100 µM
[42]
  TGI: > 100 µM
[43]
  TGI: 57.2 µM
[44]
  TGI: > 100 µM
[45]
  TGI: > 100 µM
[46]
  TGI: 35.5 µM
[47]
  TGI: > 100 µM
[48]
  TGI: 77.6 µM
[49]
  TGI: 62.7 µM
[50]
  TGI: 39 µM
[51]
  TGI: > 100 µM
[52]
  TGI: 60.7 µM
[53]
  TGI: 36.8 µM
[54]
  TGI: 40.8 µM
[55]
  TGI: 37.8 µM

## CCCNCC(=O)O[C@]1(CC)C(=O)OCc2c1cc1n(c2=O)Cc2cc3ccccc3nc2-1
[1]
  TGI: 0.117 µM
[2]
  TGI: 0.849 µM
[3]
  TGI: 1.98 µM
[4]
  TGI: 0.233 µM
[6]
  TGI: 0.308 µM
[7]
  TGI: 3.07 µM
[8]
  TGI: > 100 µM
[9]
  TGI: 0.941 µM
[10]
  TGI: 0.114 µM
[11]
  TGI: > 100 µM
[12]
  TGI: 4.36 µM
[15]
  TGI: 0.553 µM
[16]
  TGI: > 100 µM
[18]
  TGI: 3.6 µM
[19]
  TGI: > 100 µM
[20]
  TGI: 4.68 µM
[21]
  TGI: > 100 µM
[22]
  TGI: 8.05 µM
[23]
  TGI: 19.2 µM
[24]
  TGI: 0.662 µM
[25]
  TGI: 67.6 µM
[26]
  TGI: 1.82 µM
[27]
  TGI: 1.96 µM
[28]
  TGI: 4.1 µM
[29]
  TGI: 0.0699 µM
[30]
  TGI: 0.331 µM
[31]
  TGI: 0.321 µM
[32]
  TGI: 0.154 µM
[33]
  TGI: 1.63 µM
[34]
  TGI: 2.63 µM
[35]
  TGI: 3.99 µM
[36]
  TGI: 3.96 µM
[37]
  TGI: 8.33 µM
[38]
  TGI: 0.88 µM
[39]
  TGI: 0.39 µM
[40]
  TGI: 2.46 µM
[41]
  TGI: 2.1 µM
[56]
  TGI: 136 nM
[42]
  TGI: 3.68 µM
[43]
  TGI: 32.8 µM
[44]
  TGI: 0.304 µM
[45]
  TGI: > 100 µM
[46]
  TGI: 0.215 µM
[47]
  TGI: > 100 µM
[48]
  TGI: 0.537 µM
[50]
  TGI: > 100 µM
[51]
  TGI: 0.244 µM
[52]
  TGI: 1.88 µM
[53]
  TGI: 1.12 µM
[55]
  TGI: 0.652 µM

## C/C(CC(=O)Nc1cc(C)ccc1C)=N/N=C(N)N
[1]
  TGI: > 100 µM
[2]
  TGI: > 100 µM
[3]
  TGI: > 100 µM
[4]
  TGI: > 100 µM
[6]
  TGI: > 100 µM
[7]
  TGI: > 100 µM
[8]
  TGI: > 100 µM
[9]
  TGI: > 100 µM
[10]
  TGI: > 100 µM
[11]
  TGI: > 100 µM
[12]
  TGI: > 100 µM
[13]
  TGI: > 100 µM
[15]
  TGI: > 100 µM
[17]
  TGI: > 100 µM
[18]
  TGI: > 100 µM
[19]
  TGI: > 100 µM
[20]
  TGI: > 100 µM
[21]
  TGI: > 100 µM
[22]
  TGI: > 100 µM
[23]
  TGI: > 100 µM
[24]
  TGI: > 100 µM
[25]
  TGI: > 100 µM
[26]
  TGI: > 100 µM
[27]
  TGI: > 100 µM
[28]
  TGI: > 100 µM
[29]
  TGI: > 100 µM
[30]
  TGI: > 100 µM
[31]
  TGI: > 100 µM
[32]
  TGI: > 100 µM
[33]
  TGI: > 100 µM
[34]
  TGI: > 100 µM
[36]
  TGI: > 100 µM
[37]
  TGI: > 100 µM
[38]
  TGI: > 100 µM
[39]
  TGI: > 100 µM
[40]
  TGI: > 100 µM
[41]
  TGI: > 100 µM
[56]
  TGI: > 100000 nM
[42]
  TGI: > 100 µM
[43]
  TGI: > 100 µM
[44]
  TGI: > 100 µM
[45]
  TGI: > 100 µM
[48]
  TGI: > 100 µM
[57]
  TGI: > 100 µM
[49]
  TGI: > 100 µM
[50]
  TGI: > 100 µM
[51]
  TGI: > 100 µM
[52]
  TGI: > 100 µM
[53]
  TGI: > 100 µM
[54]
  TGI: > 100 µM
[55]
  TGI: > 100 µM

Reference: PubChem BioAssay (NCI)
